Measurements: patent US20230372365A1, “METHODS OF TREATING FIBROMYALGIA WITH NEUROACTIVE STEROIDS” (priority 2020, published 2023)

Tests used:
GABAA receptor subtypes = experiment: FLIPR calcium flux, all 18 subtypes taken together; format: cell-based; details: 18 subtypes tested
Procedure: (§1) Cells expressing the indicated GABAA receptor subtype were exposed to gamma-aminobutyric acid in the presence of varying concentrations of either CV-10155 or SPNC-019, calcium flux was measured using a fluorometric imaging plate reader (FLIPR), and EC50 values for compounds were determined.
The results further indicate that the isomeric purity of compositions containing compounds of Formula (I) greatly impacts the utility of such compositions as therapeutic agents.

α4β3δ GABAA receptor [1] = target: T1, α4β3δ GABAA receptor (Homo sapiens, UniProt O14764+P28472+P48169); experiment: FLIPR calcium flux, modulation of GABA response; format: cell-based; set-up: expressed in transfected cells; details: comparison of Example 1 data
T1 sequence (P48169 36-554): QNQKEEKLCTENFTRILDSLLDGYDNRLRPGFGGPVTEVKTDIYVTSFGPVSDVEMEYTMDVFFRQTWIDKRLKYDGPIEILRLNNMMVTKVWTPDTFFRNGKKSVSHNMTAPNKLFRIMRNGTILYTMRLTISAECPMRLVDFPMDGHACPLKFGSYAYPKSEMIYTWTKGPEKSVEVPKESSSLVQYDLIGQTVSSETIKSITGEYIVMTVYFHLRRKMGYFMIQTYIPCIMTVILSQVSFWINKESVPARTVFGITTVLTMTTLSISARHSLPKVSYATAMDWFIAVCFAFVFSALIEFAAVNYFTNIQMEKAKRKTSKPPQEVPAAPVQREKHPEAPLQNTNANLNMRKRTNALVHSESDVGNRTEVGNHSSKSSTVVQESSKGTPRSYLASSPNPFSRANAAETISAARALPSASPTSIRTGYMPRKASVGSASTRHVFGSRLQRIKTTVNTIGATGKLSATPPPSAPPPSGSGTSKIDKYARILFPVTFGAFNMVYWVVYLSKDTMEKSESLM
T1 sequence (P28472 26-473): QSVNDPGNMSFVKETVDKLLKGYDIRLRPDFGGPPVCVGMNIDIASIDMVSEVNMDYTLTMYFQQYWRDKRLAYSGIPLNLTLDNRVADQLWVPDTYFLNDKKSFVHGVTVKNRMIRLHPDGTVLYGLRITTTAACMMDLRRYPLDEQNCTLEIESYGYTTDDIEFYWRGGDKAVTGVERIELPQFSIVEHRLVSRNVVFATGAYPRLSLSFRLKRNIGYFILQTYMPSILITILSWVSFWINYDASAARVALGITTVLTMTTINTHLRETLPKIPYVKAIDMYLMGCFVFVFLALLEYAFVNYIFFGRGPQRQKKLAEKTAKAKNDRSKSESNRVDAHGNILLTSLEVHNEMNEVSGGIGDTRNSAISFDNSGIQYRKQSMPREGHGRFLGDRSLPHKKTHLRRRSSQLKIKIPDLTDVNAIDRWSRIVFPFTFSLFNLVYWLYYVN
T1 sequence (O14764 25-452): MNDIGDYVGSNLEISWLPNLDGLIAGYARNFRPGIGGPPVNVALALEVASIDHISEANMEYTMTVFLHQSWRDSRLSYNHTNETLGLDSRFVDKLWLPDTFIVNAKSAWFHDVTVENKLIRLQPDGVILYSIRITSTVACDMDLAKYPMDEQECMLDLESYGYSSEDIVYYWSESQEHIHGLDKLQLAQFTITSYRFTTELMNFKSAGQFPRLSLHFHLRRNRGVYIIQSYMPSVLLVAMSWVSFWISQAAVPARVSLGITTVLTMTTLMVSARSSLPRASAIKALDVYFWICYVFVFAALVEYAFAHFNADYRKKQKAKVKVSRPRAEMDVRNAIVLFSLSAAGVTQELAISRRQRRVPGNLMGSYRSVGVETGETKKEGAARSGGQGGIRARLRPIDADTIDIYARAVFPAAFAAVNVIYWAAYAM
Procedure: as §1

[2] = target: picrotoxin binding site of GABAA receptors; details: membranes from cortices of rat brains; read-out: IC50 in the TBPS displacement assay; cited from earlier work
α1β2γ2 GABAA receptors = target: T2, α1β2γ2 GABAA receptors (Homo sapiens, UniProt P14867+P18507+P47870); details: 10 μM steroid, GABA 2 μM (EC20), LTK cells; cited from earlier work
T2 construct: expressed in transfected cells; host or cells: LTK cells, stably transfected
T2 sequence (P14867 28-456): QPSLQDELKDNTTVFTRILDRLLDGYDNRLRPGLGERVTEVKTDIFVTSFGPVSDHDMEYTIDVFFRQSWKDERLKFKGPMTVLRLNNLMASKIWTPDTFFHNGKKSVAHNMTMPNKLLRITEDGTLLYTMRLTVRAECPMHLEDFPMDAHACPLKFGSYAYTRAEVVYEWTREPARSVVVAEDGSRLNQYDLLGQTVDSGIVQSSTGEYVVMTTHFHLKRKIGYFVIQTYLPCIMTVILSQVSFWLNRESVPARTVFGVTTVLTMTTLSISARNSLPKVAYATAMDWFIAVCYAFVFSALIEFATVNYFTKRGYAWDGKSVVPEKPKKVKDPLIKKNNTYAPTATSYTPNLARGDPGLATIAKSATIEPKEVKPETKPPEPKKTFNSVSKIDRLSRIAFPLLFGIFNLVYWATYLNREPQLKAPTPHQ
T2 sequence (P47870 25-512 limits assumed): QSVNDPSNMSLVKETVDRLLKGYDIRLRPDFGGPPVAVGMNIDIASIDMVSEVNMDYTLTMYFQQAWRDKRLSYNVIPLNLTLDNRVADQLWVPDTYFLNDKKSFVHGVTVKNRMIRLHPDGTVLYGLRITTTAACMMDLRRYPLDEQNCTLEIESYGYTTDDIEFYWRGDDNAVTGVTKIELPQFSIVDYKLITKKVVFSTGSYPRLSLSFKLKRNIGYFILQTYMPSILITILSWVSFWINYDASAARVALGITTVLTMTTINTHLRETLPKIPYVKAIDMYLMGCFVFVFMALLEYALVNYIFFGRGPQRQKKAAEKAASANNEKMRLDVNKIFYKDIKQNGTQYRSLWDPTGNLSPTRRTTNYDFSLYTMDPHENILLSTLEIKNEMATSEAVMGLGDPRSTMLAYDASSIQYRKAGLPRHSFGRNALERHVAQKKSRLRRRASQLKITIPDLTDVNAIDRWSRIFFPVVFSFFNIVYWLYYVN
T2 sequence (P18507 40-475): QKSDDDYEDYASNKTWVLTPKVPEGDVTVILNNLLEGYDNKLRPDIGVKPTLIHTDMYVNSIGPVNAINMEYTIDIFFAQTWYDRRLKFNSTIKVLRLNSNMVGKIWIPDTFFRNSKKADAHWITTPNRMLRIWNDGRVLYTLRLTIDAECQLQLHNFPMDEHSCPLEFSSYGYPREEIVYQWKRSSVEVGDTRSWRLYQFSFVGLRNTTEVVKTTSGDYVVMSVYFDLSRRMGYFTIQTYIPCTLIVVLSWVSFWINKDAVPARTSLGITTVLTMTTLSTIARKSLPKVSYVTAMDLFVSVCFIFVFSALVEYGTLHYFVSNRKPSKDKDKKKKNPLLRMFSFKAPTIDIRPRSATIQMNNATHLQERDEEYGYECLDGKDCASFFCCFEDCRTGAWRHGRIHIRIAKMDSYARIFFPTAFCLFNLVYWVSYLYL

α4β3δ GABAA receptor [3] = target: T1, α4β3δ GABAA receptor; set-up: expressed in transfected cells; host or cells: CHO cells, transiently transfected; details: 10 μM steroid, GABA 2 μM (EC20), CHO cells; cited from earlier work

| SMILES | modulating activity across the GABAA receptor subtypes tested (GABAA receptor subtypes) | IC50 [2] [nM] | other results |
| --- | --- | --- | --- |
| C[C@]1(O)CC[C@@]2(C)[C@@H](CC[C@@H]3[C@@H]2CC[C@]2(C)[C@@H](C(=O)Cn4cc(C#N)cn4)CC[C@@H]32)C1 [SPNC-019] | no modulating activity in 15 of the 18 GABAA receptor subtypes tested |  |  |
| C[C@@]1(O)CC[C@@]2(C)[C@@H](CC[C@@H]3[C@@H]2CC[C@]2(C)[C@@H](C(=O)Cn4cc(C#N)cn4)CC[C@@H]32)C1 [CV-10155, 1-[2-[(3R,5S,8R,9S,10S,13S,14S,17S)-3-hydroxy-3,10,13-trimethyl-1,2,4,5,6,7,8,9,11,12,14,15,16,17-tetradecahydrocyclopenta[a]phenanthren-17-yl]-2-oxoethyl]pyrazole-4-carbonitrile] | some level of positive allosteric modulating activity in all of the GABAA receptor subtypes tested |  | preferential modulation of α4β3δ compared to α1β2γ2 GABAA receptors (α4β3δ GABAA receptor [1]): preferentially modulate; preferential modulation of α4β3δ compared to α1β2γ2 GABAA receptors (α4β3δ GABAA receptor [1]; listed as Formula (I)): substantially more active |
| C[C@@]1(O)CC[C@@]2(C)[C@H](CC[C@@H]3[C@@H]2CC[C@]2(C)[C@@H](C(=O)Cn4cc(C#N)cn4)CC[C@@H]32)C1 [Compound 10] |  | < 10 |  |
| C[C@@]1(O)CC[C@@]2(C)[C@@H](CC[C@@H]3[C@@H]2CC[C@]2(C)[C@@H](C(=O)Cn4ccc(C#N)n4)CC[C@@H]32)C1 [Compound 121] |  | 10 to 50 | efficacy (relative potentiation of GABA-mediated conductance) (α1β2γ2 GABAA receptors): > 500%; efficacy (relative potentiation of GABA-mediated conductance) (α4β3δ GABAA receptor [3]): > 500% |
